We go through nine molecules from article PMC5786306, “An AKAP-Lbc-RhoA interaction inhibitor promotes the translocation of aquaporin-2 to the plasma membrane of renal collecting duct principal cells” (PLoS ONE, 2018).

“Also recorded” adds a separate entry of the source. Like-named read-outs stand apart in the source and are kept apart here. Bounds are passed on as bounds.

The conditions of data set [1]: comparison value, no reference given; cited from earlier work.
A short description of the next data set: Nephelometric solubility. The note with it: maximal solubility in DMEM + 10 % FCS. The class given is physicochemical. As to the method:
Solubility of Scaff10 derivatives was assessed nephelometrically. Scaff10 derivatives are moderately to poorly soluble in aqueous solutions due to their large number of aromatic rings having lipophilic character. Details about NMR, LC/MS and HPLC characterization steps are given in the Supplemental Information.
Suppl. Tab. 3: Overview of all 55 Scaff10 derivatives.Structures labeld with 1 were commercially obtained. MW = molecular weight. logP = calculated partition coefficient (using […]
Solubility was assessed nephelometrically in DMEM + 10 % FCS + Scaff10 derivative with either 0.3 or 2 % DMSO
final concentration; values in µM indicate maximal solubility of the compound under the respective condition. Yield in % indicates total yield of the last step of chemical synthesis
for each of Scaff10 derivatives. n.d. = not determined. n.i. = not indicated.
Scaff10 MW Number of exp. 2 % DMSO 0.3 % DMSO Scaff10 Yield
Structure log P Disruption of the PPI IC50 [µM]
derivative [g/mol] in dupl. [µM] [µM] class [%]

The target in data set [2] is T1, interaction of AKAP-Lbc/DHPH and RhoA (Homo sapiens, UniProt P61586).
T1 construct: His6-AKAP-Lbc/DHPH (aa 1972–2342 of human AKAP-Lbc; NP_006729.4); made in house
As to the kind of experiment: Homogeneous time-resolved fluorescence (HTRF) assay. Type of data set: binding. The note with it: for inhibitory effect on the AKAP-Lbc/DHPH-RhoA interaction: result in words. An excerpt: Fig 2 The small molecule Scaff10-8 inhibits the interaction of the DH domain of AKAP-Lbc and RhoA. (A). Principle of homogenous time-resolved fluorescence (HTRF) assay. Recombinant His-AKAP-Lbc/DHPH and GST-RhoA were generated. The tags are recognized by specific antibodies coupled to fluorescent dyes. When the two proteins interact, donor and acceptor dyes of the antibodies are in close proximity, energy transfer occurs upon excitation at 320 nm and a FRET signal is detected (665 nm). If a compound disrupts the interaction of the DHPH domain and RhoA, the proximity of the fluorescent moieties remains insufficient for a FRET signal to occur. […] As expected, excess untagged Rho decreases the binding between GST-RhoA and His-AKAP-Lbc/DHPH in a dose-dependent manner (lower left panel). […] (C) The influence of Scaff10-8 on the interaction of RhoA with the recombinant DH domain of AKAP-Lbc in the absence of the PH domain was determined by Alpha screen. […] The IC50 value is indicated.
The assay was essentially carried out as described. Scaff10 derivatives were added to His6-AKAP-Lbc/DHPH protein (250 nM final concentration) in HTRF buffer (PBS; 4 mM MgCl2; 0.05% Tween 20) in 384 well plates (Proxiplate-384 Plus, white, #6008289; Perkin Elmer LAS, Rodgau, Germany). Concentrations of Scaff10 derivatives ranged between 1.56–200 μM (2% DMSO final concentration); HTRF buffer with 2% DMSO served as a control. GST-RhoA (30 nM final concentration) in HTRF buffer and anti-GST antibody coupled to terbium (donor) and anti-His6-tag antibody coupled to XL665 (acceptor) were added to all wells (final antibody concentration: 2 μg/ml). After 1 h incubation at room temperature in the dark, FRET signals were recorded at 620 and 665 nm using a Genios Pro plate reader (Tecan Austria GmbH, Grödig, AT) and the ratios of […] to 620 nm were calculated. Wells containing no compound were set to 100% interaction of AKAP-Lbc/DHPH with RhoA, wells containing GST-RhoA only (without His6-AKAP-Lbc/DHPH) were set to 0% interaction. To exclude any interference of the tags and/or antibodies with Scaff10 derivatives, a His6-GST fusion protein replaced the two tagged proteins in a control assay. Wells containing His6-GST fusion protein were set to 100% interaction of His6-GST, wells containing no fusion protein were set to 0% interaction.
A general note: Time-resolved FRET reads energy transfer from a long-lived donor to a nearby acceptor.

For a further data set, the target named is T2, 647-RhoA (Homo sapiens, UniProt P61586).
T2 construct: made in house
As to the kind of experiment: Microscale thermophoresis (MST) with 647-RhoA. The note with it: for Kd: mean ± SEM. Type of data set: binding. As to the method:
(§1) The final concentration of GFP-AKAP-Lbc/DHPH was set to 150 nM, 95% LED and 80% MST laser power. […] The samples were incubated in the dark for 1 h incubation at room temperature, and measured with 30 sec laser-on and 5 sec laser-off time at a Monolith NT.115 device (NanoTemper). Measured fluorescence (F) was normalised (Fhot/Fcold = Fsteady state/Finitial state, Fig 3). Values of thermophoresis + T-jump were related to average of each measurement row (16 capillaries). Final values are given as ‰.
(§2) Fig 4 The Scaff10 derivative Scaff10-8 binds to RhoA but not to the DHPH domain of AKAP-Lbc. (A-D) Microscale thermophoresis (MST) takes advantage of the phenomenon of directed movement of particles in a temperature gradient. Binding events lead to changes in the hydration shell of biomolecules and a relative change of movement of the molecular complex along a temperature gradient. Using such changes, binding affinities can be determined. MST assays were carried out with (A) the recombinant DHPH domain of AKAP-Lbc fused with GFP and RhoA as a ligand and (B) fluorescent 647-RhoA and the His-tagged AKAP-Lbc/DHPH domain as a ligand. (C) MST assays for the analysis of the binding of Scaff10-8 to 647-RhoA. Upper panels: The concentration of fluorescent 647-RhoA remained constant and Scaff10-8 (left) and Scaff10-7 as a negative control (right) were titrated in increasing concentrations. Lower panels: Values of fluorescence corresponding to upper panels. (D) MST assay showing no binding of Scaff10-8 or Scaff10-7 to GFP-DHPH. Upper panels: The concentration of fluorescent GFP-AKAP-Lbc/DHPH remained constant and Scaff10-8 (left) and Scaff10-7 (right) were titrated in increasing concentrations. Lower panels: Values of fluorescence corresponding to upper panels. […] F norm = normalized fluorescence (fluorescence steady state/fluorescence initial state) indicated in ‰. n = 3–5. Mean ± SEM. […] The ligand protein named in each panel heading is used as the substance label, and it is uncertain whether these count as substances.
A general note: MST reads how a fluorescent partner responds to local heating, with and without ligand.

The subject of data set [3] is AQP2 localization in MCD4 cells. As to the kind of experiment: Immunofluorescence microscopy of AQP2 in MCD4 cells. Type of data set: cell-based, mouse. The note with it: 30 μM.
For data set [4], the target named is T3, interaction of the DH domain of AKAP-Lbc and RhoA (Homo sapiens, UniProt P61586).
T3 construct: The proteins used were N-terminally His6-tagged AKAP-Lbc-DH domain
The experiment in a line: Alpha screen assay. Type of data set: binding. The note with it: result in words. As to the method:
Assays were performed according to the manufacturer’s protocol (PerkinElmer) with minor modifications. All reagents were diluted in buffer containing 25 mM Hepes, pH 7.4, 100 mM NaCl, 0.1% bovine serum albumin, 0.05% CHAPS and 50 μM GDP and allowed to equilibrate to room temperature before addition to plates. […] The proteins used were N-terminally His6-tagged AKAP-Lbc-DH domain and C-terminally biotinylated RhoA. […] 8 μL of assay buffer containing donor and acceptor beads at 1:400 dilution was then added, the plate was incubated in the dark for 60 min and then read on a PheraStar FS plate reader (BMG Labtech, Germany) using an AlphaScreen^TM 680 excitation/570 emission filter set.
11.6 μL of a solution containing 100 nM RhoA and 200 nM AKAP13 in assay buffer was added and incubated with the compounds for 30 min at RT in foil-sealed plates. 8 μL of assay buffer containing donor and acceptor beads at 1:400 dilution was added. The plate was incubated in the dark for 60 min and then read on a PheraStar FS plate reader.

The target in the next data set is T4, GFP-AKAP-Lbc/DHPH (Homo sapiens, UniProt Q12802).
T4 construct: His6-AKAP-Lbc/DHPH (aa 1972–2342 of human AKAP-Lbc; NP_006729.4); made in house; host or cells: HEK293-EBNA cells (transient transfection, pTT5)
T4 sequence (Q12802 1972-2342 isoform Q12802-2): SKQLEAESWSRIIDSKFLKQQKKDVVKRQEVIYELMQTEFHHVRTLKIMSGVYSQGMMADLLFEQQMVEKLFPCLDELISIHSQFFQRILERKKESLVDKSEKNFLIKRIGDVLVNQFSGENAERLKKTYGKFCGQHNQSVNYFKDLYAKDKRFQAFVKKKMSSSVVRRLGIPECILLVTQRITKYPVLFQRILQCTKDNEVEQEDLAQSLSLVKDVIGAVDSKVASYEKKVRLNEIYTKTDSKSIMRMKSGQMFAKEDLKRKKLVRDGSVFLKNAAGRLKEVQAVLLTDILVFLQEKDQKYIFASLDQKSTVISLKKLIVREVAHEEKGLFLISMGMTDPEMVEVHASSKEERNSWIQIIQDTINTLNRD
As to the kind of experiment: Microscale thermophoresis (MST) with GFP-AKAP-Lbc/DHPH. The note with it: read-out: KD for binding to GFP-AKAP-Lbc/DHPH. The class given is binding. As to the method: as §1, §2

Setting [5] is: Table 1, HTRF, '-' = no IC50, inactive (n.d. is used separately in S3 Table), read-out: IC50 ± SEM.
The mark [6] stands for this setting: DMEM + 10 % FCS, plasma or biological fluid, kinetic from dmso stock, 0.3 % DMSO final, read-out: Solubility 0.3 % DMSO.
Where [7] appears, read: DMEM + 10 % FCS, plasma or biological fluid, kinetic from dmso stock, 2 % DMSO final, read-out: Solubility 2 % DMSO.
The mark [8] stands for this setting: IC50 ± SEM, Table 1, HTRF, '-' = no IC50, inactive (n.d. is used separately in S3 Table).

Usually pKa stands for the negative logarithm of the acid dissociation constant. A word on the solubility: it is the dissolved amount per volume that the medium holds. As a reminder, the IC50 is the concentration at which inhibition is half-maximal.

T2 sequence (P61586 whole entry): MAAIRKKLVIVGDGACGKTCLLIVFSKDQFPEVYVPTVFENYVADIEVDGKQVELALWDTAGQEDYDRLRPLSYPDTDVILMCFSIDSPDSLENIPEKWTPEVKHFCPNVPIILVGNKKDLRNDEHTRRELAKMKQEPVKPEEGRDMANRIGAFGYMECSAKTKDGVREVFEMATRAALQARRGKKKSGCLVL
T1 sequence (P61586 whole entry, the tested form may be a part): as the sequence (P61586 whole entry) above
T3 sequence (P61586 whole entry, the tested form may be a part): as the sequence (P61586 whole entry) above

As to `O=C(O)/C=C/c1ccccc1` [cinnamic acid], in data set [1], the pKa is listed as 4.44.
For the molecule `COC(=O)CCc1c(C)c2cc3c(-c4ccc(OC)cc4)coc3cc2oc1=O` [Scaff10-48], the solubility amounted to 75 µM in “Nephelometric solubility” (0.3 % DMSO final, read-out: Solubility 0.3 % DMSO) and 30 µM in “Nephelometric solubility” (2 % DMSO final, read-out: Solubility 2 % DMSO). The “inhibitory effect on the AKAP-Lbc/DHPH-RhoA interaction” value in data set [2] (HTRF) is reported as “complete loss of the inhibitory effect”. Further, the IC50 in data set [2] (setting [5]) is above 200 µM. Moreover, the “binding to 647-RhoA” value on 647-RhoA (result in words) is on record as “did not bind”.
Turning to `CCOC(=O)CCc1c(C)c2ccc(OCc3ccc(OC)cc3)cc2oc1=O` [Scaff10-59], in data set [3], the “localization of AQP2 in MCD4 cells” value is recorded as “did not affect the location of AQP2”. Besides, the “inhibitory effect in Alpha screen” value in data set [4] is reported as “without inhibitory effects”. Besides, the solubility came to 40 µM in the data set “Nephelometric solubility” (setting [6]) and 30 µM in “Nephelometric solubility” (setting [7]). In addition, the “inhibitory effect on the AKAP-Lbc/DHPH-RhoA interaction” value in data set [2] (HTRF) is “did not; also recorded: without inhibitory effects”. Moreover, the IC50 in data set [2] (setting [5]) is above 200 µM.
For the molecule “untagged RhoA: recombinant untagged RhoA protein used as competitor or ligand”, in the data set with GFP-AKAP-Lbc/DHPH, the Kd came to 42 ± 5 µM.
Take `CC(=O)NO` [acetohydroxamic acid]: the pKa in data set [1] is on record as 8.7.
For `Cc1c(CCC(=O)O)c(=O)oc2cc3occ(-c4ccc(Oc5ccccc5)cc4)c3cc12` [Scaff10-38], the solubility in “Nephelometric solubility” (setting [6]) was above 150 µM; in the data set “Nephelometric solubility” (setting [7]), 100 µM. This molecule had an IC50 in data set [2] (setting [8]) of 36.7 ± 3.3 µM. In addition, the Kd at 647-RhoA (KD for binding to 647-RhoA, n = 3–5) was 19.5 ± 4.1 µM.
In the case of `COc1ccc(-c2coc3c(C)c4oc(=O)c(CCC(=O)O)c(C)c4cc23)cc1` [Scaff10-50], the solubility in the data set “Nephelometric solubility” (setting [6]) was above 150 µM; in “Nephelometric solubility” (setting [7]), 70 µM. In addition, the IC50 in data set [2] (Suppl. Tab. 3, ± SEM, '-' = no IC50, inactive, n.d. = not determined, read-out: HTRF assay IC50) is 26.8 ± 3.5 µM.
Take `Cc1c(CCC(=O)O)c(=O)oc2cc(OCC(=O)c3ccc(-c4ccccc4)cc3)ccc12` [Scaff10-40]: the solubility is 10 µM in the data set “Nephelometric solubility” (setting [6]) and 15 µM in the data set “Nephelometric solubility” (setting [7]). In addition, the IC50 is 21 ± 3 µM in data set [2] (IC50 for inhibition of the AKAP-Lbc/DHPH-RhoA interaction, HTRF, text and figures, ± SEM, n = 3–15 in duplicate); 20.8 ± 2.6 µM in data set [2] (setting [8]).

B1: His-AKAP-Lbc/DHPH: recombinant His-tagged DHPH domain of AKAP-Lbc (protein)
chain: SKQLEAESWSRIIDSKFLKQQKKDVVKRQEVIYELMQTEFHHVRTLKIMSGVYSQGMMADLLFEQQMVEKLFPCLDELISIHSQFFQRILERKKESLVDKSEKNFLIKRIGDVLVNQFSGENAERLKKTYGKFCGQHNQSVNYFKDLYAKDKRFQAFVKKKMSSSVVRRLGIPECILLVTQRITKYPVLFQRILQCTKDNEVEQEDLAQSLSLVKDVIGAVDSKVASYEKKVRLNEIYTKTDSKSIMRMKSGQMFAKEDLKRKKLVRDGSVFLKNAAGRLKEVQAVLLTDILVFLQEKDQKYIFASLDQKSTVISLKKLIVREVAHEEKGLFLISMGMTDPEMVEVHASSKEERNSWIQIIQDTINTLNRD
modifications: left off: His6, end not stated, kept
Consider B1, for which the Kd in the data set with 647-RhoA (n = 3–5, read-out: KD for binding to 647-RhoA) was determined as 14 ± 4 µM.
